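GI50 = concentration required for 50% inhibition of growth. Definition used: TGI = concentration required for complete inhibition of growth.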
Experiments:
Assay in all cases: DTP human tumour cell line panel, 384-well format
IGROV1 ovarian = tested on: IGROV1 ovarian
MDA-MB-468 breast = tested on: MDA-MB-468 breast
HT29 colon = tested on: HT29 colon
ACHN renal = tested on: ACHN renal
MALME-3M melanoma = tested on: MALME-3M melanoma
PC-3 prostate = tested on: PC-3 prostate
M14 melanoma = tested on: M14 melanoma
A498 renal = tested on: A498 renal
NCI/ADR-RES ovarian = tested on: NCI/ADR-RES ovarian
MOLT-4 leukemia = tested on: MOLT-4 leukemia
NCI-H322M lung = tested on: NCI-H322M lung
K-562 leukemia = tested on: K-562 leukemia
CCRF-CEM leukemia = tested on: CCRF-CEM leukemia
HL-60(TB) leukemia = tested on: HL-60(TB) leukemia
SK-MEL-28 melanoma = tested on: SK-MEL-28 melanoma
CAKI-1 renal = tested on: CAKI-1 renal
SK-MEL-2 melanoma = tested on: SK-MEL-2 melanoma
SNB-75 CNS = tested on: SNB-75 CNS
SF-539 CNS = tested on: SF-539 CNS
UACC-257 melanoma = tested on: UACC-257 melanoma
OVCAR-4 ovarian = tested on: OVCAR-4 ovarian
HCT-15 colon = tested on: HCT-15 colon
NCI-H23 lung = tested on: NCI-H23 lung
SK-MEL-5 melanoma = tested on: SK-MEL-5 melanoma
SR leukemia = tested on: SR leukemia
SN12C renal = tested on: SN12C renal
SW-620 colon = tested on: SW-620 colon
MCF7 breast = tested on: MCF7 breast
SK-OV-3 ovarian = tested on: SK-OV-3 ovarian
NCI-H226 lung = tested on: NCI-H226 lung
T-47D breast = tested on: T-47D breast
NCI-H460 NSCLC = tested on: NCI-H460 NSCLC
COLO 205 colon = tested on: COLO 205 colon
UO-31 renal = tested on: UO-31 renal
LOX IMVI melanoma = tested on: LOX IMVI melanoma
A549 NSCLC = tested on: A549 NSCLC
SNB-19 CNS = tested on: SNB-19 CNS
SF-295 CNS = tested on: SF-295 CNS
OVCAR-5 ovarian = tested on: OVCAR-5 ovarian
BT-549 breast = tested on: BT-549 breast
SF-268 CNS = tested on: SF-268 CNS
HOP-62 NSCLC = tested on: HOP-62 NSCLC
RXF 393 renal = tested on: RXF 393 renal
DU-145 prostate = tested on: DU-145 prostate
HS 578T breast = tested on: HS 578T breast
EKVX NSCLC = tested on: EKVX NSCLC
MDA-MB-435 melanoma = tested on: MDA-MB-435 melanoma

N#Cc1cnc(Nc2cc(NC[C@H]3CNCCO3)c(C(F)(F)F)cn2)cn1 was tested, and the GI50 (IGROV1 ovarian) was 9.13 µM, the TGI (IGROV1 ovarian) was 47.6 µM and the GI50 (MDA-MB-468 breast) was 13.9 µM. The TGI (MDA-MB-468 breast) was 27.2 µM, the GI50 (HT29 colon) was 20.6 µM and the TGI (HT29 colon) was > 74.7 µM. The GI50 (ACHN renal) was 0.305 µM, the TGI (ACHN renal) was 1.22 µM and the GI50 (MALME-3M melanoma) was 7.25 µM. For the same molecule, the TGI (MALME-3M melanoma) was 22.9 µM, the GI50 (PC-3 prostate) was 16.4 µM and the TGI (PC-3 prostate) was 40.3 µM. It also gave a GI50 (M14 melanoma) of 0.292 µM, a TGI (M14 melanoma) of 0.785 µM and a GI50 (A498 renal) of 0.234 µM. For the same molecule, the TGI (A498 renal) was 0.531 µM, the GI50 (NCI/ADR-RES ovarian) was 0.963 µM and the TGI (NCI/ADR-RES ovarian) was 2.91 µM. It also gave a GI50 (MOLT-4 leukemia) of 0.404 µM, a TGI (MOLT-4 leukemia) of 1.34 µM and a GI50 (NCI-H322M lung) of 9.8 µM. For the same molecule, the TGI (NCI-H322M lung) was 32.4 µM, the GI50 (K-562 leukemia) was 0.58 µM and the TGI (K-562 leukemia) was 2.23 µM. For the same molecule, the GI50 (CCRF-CEM leukemia) was 0.333 µM, the TGI (CCRF-CEM leukemia) was 0.976 µM and the GI50 (HL-60(TB) leukemia) was 0.625 µM. For the same molecule, the TGI (HL-60(TB) leukemia) was 1.76 µM, the GI50 (SK-MEL-28 melanoma) was 18.1 µM and the TGI (SK-MEL-28 melanoma) was 35.6 µM. It also gave a GI50 (CAKI-1 renal) of 12.2 µM, a TGI (CAKI-1 renal) of 53.8 µM and a GI50 (SK-MEL-2 melanoma) of 10.8 µM. For the same molecule, the TGI (SK-MEL-2 melanoma) was 22.7 µM, the GI50 (SNB-75 CNS) was 14.7 µM and the TGI (SNB-75 CNS) was 27.9 µM. For the same molecule, the GI50 (SF-539 CNS) was 0.38 µM, the TGI (SF-539 CNS) was 1.18 µM and the GI50 (UACC-257 melanoma) was 17.6 µM. It also gave a TGI (UACC-257 melanoma) of 31.8 µM, a GI50 (OVCAR-4 ovarian) of 1.86 µM and a TGI (OVCAR-4 ovarian) of 34.4 µM. For the same molecule, the GI50 (HCT-15 colon) was 5.16 µM, the TGI (HCT-15 colon) was > 65.1 µM and the GI50 (NCI-H23 lung) was 0.508 µM. It also gave a TGI (NCI-H23 lung) of 12.3 µM, a GI50 (SK-MEL-5 melanoma) of 2.97 µM and a TGI (SK-MEL-5 melanoma) of 16 µM. It also gave a GI50 (SR leukemia) of 0.0572 µM, a TGI (SR leukemia) of 0.186 µM and a GI50 (SN12C renal) of 18.3 µM. It also gave a TGI (SN12C renal) of 38.5 µM, a GI50 (SW-620 colon) of 16.8 µM and a TGI (SW-620 colon) of 39.4 µM. It also gave a GI50 (MCF7 breast) of 0.728 µM, a TGI (MCF7 breast) of 20.7 µM and a GI50 (SK-OV-3 ovarian) of 2.33 µM. For the same molecule, the TGI (SK-OV-3 ovarian) was 11 µM, the GI50 (NCI-H226 lung) was 20.1 µM and the TGI (NCI-H226 lung) was 54.1 µM. It also gave a GI50 (T-47D breast) of 25.4 µM, a TGI (T-47D breast) of 51.3 µM and a GI50 (NCI-H460 NSCLC) of 8.14 µM. The TGI (NCI-H460 NSCLC) was 21 µM, the GI50 (COLO 205 colon) was 15.3 µM and the TGI (COLO 205 colon) was 34.4 µM. The GI50 (UO-31 renal) was 0.588 µM, the TGI (UO-31 renal) was > 100 µM and the GI50 (LOX IMVI melanoma) was 14.9 µM. For the same molecule, the TGI (LOX IMVI melanoma) was 32.6 µM, the GI50 (A549 NSCLC) was 21.5 µM and the TGI (A549 NSCLC) was > 100 µM. For the same molecule, the GI50 (SNB-19 CNS) was 9.81 µM, the TGI (SNB-19 CNS) was 62.7 µM and the GI50 (SF-295 CNS) was 0.946 µM. The TGI (SF-295 CNS) was 4.12 µM, the GI50 (OVCAR-5 ovarian) was 17.1 µM and the TGI (OVCAR-5 ovarian) was 43.9 µM. It also gave a GI50 (BT-549 breast) of 0.377 µM, a TGI (BT-549 breast) of 1.71 µM and a GI50 (SF-268 CNS) of 14.4 µM. The TGI (SF-268 CNS) was 30.1 µM, the GI50 (HOP-62 NSCLC) was 3.75 µM and the TGI (HOP-62 NSCLC) was 16.8 µM. For the same molecule, the GI50 (RXF 393 renal) was 0.272 µM, the TGI (RXF 393 renal) was 0.715 µM and the GI50 (DU-145 prostate) was 5.48 µM. For the same molecule, the TGI (DU-145 prostate) was 19.4 µM, the GI50 (HS 578T breast) was 0.337 µM and the TGI (HS 578T breast) was 2.22 µM. For the same molecule, the GI50 (EKVX NSCLC) was 14.5 µM, the TGI (EKVX NSCLC) was 34 µM and the GI50 (MDA-MB-435 melanoma) was 1.77 µM. The TGI (MDA-MB-435 melanoma) was 10.5 µM.

Reference: PubChem BioAssay (NCI)
